The source of these data is US8404718B2, “Combinations of pyrazole kinase inhibitors” (Astex Therapeutics Limited, priority 2005, dated 2013).

One assay concerns the target T1, GSK3-β (Homo sapiens, UniProt P49841).
T1 construct: purchased Upstate Discovery
Briefly: Inhibitory activity against glycogen synthase kinase-3 (Protocol A or B). It is filed as biochemical. Conditions: either Protocol A or Protocol B; read-out: IC50 in the GSK3-B assays. The method, then:
The activities of the compounds of the invention as inhibitors of GSK-3 were determined using either Protocol A or Protocol B below.
The reaction is allowed to proceed for 3 hours before being stopped with an excess of ortho-phosphoric acid (5 μl at 2%). The filtration procedure is as for Activated CDK2/CyclinA assay above.
GSK3β (human) is diluted to a 10× working stock in 50 mM Tris pH 7.5, 0.1 mM EGTA, 0.1 mM sodium vanadate, 0.1% β-mercaptoethanol, 1 mg/ml BSA.
(specific activity approx 500 cpm/pmol, concentration as required).

Assay [1] relates to human colon carcinoma cell line HCT 116. Put plainly: Anti-proliferative activity, Alamar Blue assay. Conditions: 72 hours compound incubation, read-out: IC50, inhibition of cell growth, HCT 116. Format: cell-based. How it is done:
The anti-proliferative activities of the combinations of the invention, as well as the individual components of the combinations, are determined by measuring the ability of the compounds to inhibition of cell growth in a number of cell lines. Inhibition of cell growth is measured using the Alamar Blue assay (Nociari, M. M, Shalev, A., Benias, P., Russo, C. Journal of Immunological Methods 1998, 213, 157-167). The method is based on the ability of viable cells to reduce resazurin to its fluorescent product resorufin. For each proliferation assay cells are plated onto 96 well plates and allowed to recover for 16 hours prior to the addition of inhibitor compounds for a further 72 hours. At the end of the incubation period 10% (v/v) Alamar Blue is added and incubated for a further 6 hours prior to determination of fluorescent product at […]. In the case of the non-proliferating cell assay cells are maintained at confluence for 96 hour prior to the addition of inhibitor compounds for a further 72 hours. The number of viable cells is determined by Alamar Blue assay as before. All cell lines are obtained from ECACC (European Collection of cell Cultures).
Background: The colour change of resazurin is a common sign of viable cells or microbes.

The next assay has as its target Activated CDK2/CyclinA (Homo sapiens, UniProt P24941). Put plainly: Activated CDK2/CyclinA kinase inhibitory activity assay (IC50), Example 250A. Format: biochemical. How it is done: Compounds of the invention were tested for kinase inhibitory activity using the following protocol.
The reaction is allowed to proceed for 2 to 4 hours before being stopped with an excess of ortho-phosphoric acid (5 μl at 2%).
γ^33P-ATP which remains unincorporated into the histone H1 is separated from phosphorylated histone H1 on a Millipore MAPH filter plate. The wells of the MAPH plate are wetted with 0.5% orthophosphoric acid, and then the results of the reaction are filtered with a Millipore vacuum filtration unit through the wells. Following filtration, the residue is washed twice with 200 μl of 0.5% orthophosphoric acid. Once the filters have dried, 20 μl of Microscint 20 scintillant is added, and then counted on a Packard Topcount for 30 seconds.

Some results are limits rather than exact numbers.

For orientation: IC50 means the concentration needed to halve the response being measured.

T1 sequence (P49841 whole entry): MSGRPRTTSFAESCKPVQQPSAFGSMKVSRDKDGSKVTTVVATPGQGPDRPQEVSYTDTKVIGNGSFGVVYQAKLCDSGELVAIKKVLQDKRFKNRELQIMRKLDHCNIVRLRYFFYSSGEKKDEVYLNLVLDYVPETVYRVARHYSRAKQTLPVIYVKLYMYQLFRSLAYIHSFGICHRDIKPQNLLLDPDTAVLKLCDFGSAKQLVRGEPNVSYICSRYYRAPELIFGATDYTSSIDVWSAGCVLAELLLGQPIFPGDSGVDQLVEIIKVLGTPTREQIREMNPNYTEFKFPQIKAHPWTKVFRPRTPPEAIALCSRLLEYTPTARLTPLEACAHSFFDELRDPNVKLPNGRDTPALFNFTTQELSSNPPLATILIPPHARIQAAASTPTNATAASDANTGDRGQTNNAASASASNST

On to `CC(=O)Nc1c[nH]nc1C(=O)Nc1ccc(F)cc1` [Example 2, 4-Acetylamino-1H-pyrazole-3-carboxylic acid (4-fluoro-phenyl)-amide], for which the IC50 at GSK3-β was less than 10 µM; in assay [1], less than 100 µM.
Consider `O=C(Nc1c[nH]nc1C(=O)Nc1ccc(F)cc1)c1ccccc1` [Example 26, 4-Benzoylamino-1H-pyrazole-3-carboxylic acid (4-fluoro-phenyl)-amide], for which the IC50 was less than 10 µM on GSK3-β and less than 20 µM in assay [1].
`Cc1sccc1C(=O)Nc1c[nH]nc1C(=O)Nc1ccc(F)cc1` [Example 48, 4-[(2-Methyl-thiophene-3-carbonyl)-amino]-1H-pyrazole-3-carboxylic acid (4-fluoro-phenyl)-amide]: the values for the IC50 (at GSK3-β; in assay [1]) were less than 10 µM and less than 20 µM, respectively.
The matching figures for `CN1CCC(NC(=O)c2n[nH]cc2NC(=O)c2c(F)cccc2F)CC1` [Example 53, 4-(2,6-Difluoro-benzoylamino)-1H-pyrazole-3-carboxylic acid (1-methyl-piperidin-4-yl)-amide]: less than 10 µM and less than 20 µM.
The like results for `O=C(NC1CCCCC1)c1n[nH]cc1NC(=O)c1c(F)cccc1F` [Example 65] were, in that order, less than 10 µM and less than 20 µM.
As to `O=C(NC1CCNCC1)c1n[nH]cc1NC(=O)c1c(F)cccc1F` [Example 76], the IC50 was less than 10 µM on GSK3-β and less than 20 µM in assay [1].
With `CC(C)(C)C1CCC(NC(=O)c2c[nH]nc2NC(=O)c2c(F)cccc2F)CC1` (centres unmarked) [Example 77], the IC50 on GSK3-β is less than 10 µM; in assay [1] it was less than 20 µM.
Take `O=C(NCCN1CCOCC1)c1n[nH]cc1NC(=O)c1c(F)cccc1F` [Example 84]: the IC50 on GSK3-β is less than 10 µM.
As to `O=C(NC1CCN(Cc2ccccc2)CC1)c1n[nH]cc1NC(=O)c1c(F)cccc1F` [Example 86], the half-inhibitory concentration (IC50) was less than 10 µM at GSK3-β and less than 20 µM in assay [1].
Turning to `CC(C)(C)C1CCC(NC(=O)c2n[nH]cc2NC(=O)c2ccc(F)cc2)CC1` (centres unmarked) [Example 122], the IC50 on GSK3-β was less than 10 µM.
In the case of `CC(C)(C)C1CCC(NC(=O)c2n[nH]cc2NC(=O)c2ccc(Cl)cc2)CC1` (centres unmarked) [Example 126], the IC50 at GSK3-β is less than 10 µM.
Turning to `CC(C)(C)C1CCC(NC(=O)c2n[nH]cc2NC(=O)c2ccccc2)CC1` (centres unmarked) [Example 127], at GSK3-β, the IC50 was less than 10 µM.
`CC(C)(C)C1CCC(NC(=O)c2n[nH]cc2NC(=O)c2ccc(OC(F)F)cc2)CC1` (centres unmarked) [Example 128]: the IC50 on GSK3-β is less than 10 µM.
For the compound `CC(C)(C)C1CCC(NC(=O)c2n[nH]cc2NC(=O)c2cc(F)cc(F)c2)CC1` (centres unmarked) [Example 129], at GSK3-β, the IC50 was less than 10 µM.
Regarding `Cc1onc(-c2ccccc2)c1C(=O)Nc1c[nH]nc1C(=O)NC1CCNCC1` [Example 146], on GSK3-β, the IC50 is less than 10 µM.
Take `O=C(Nc1c[nH]nc1C(=O)N[C@H]1CC[C@H](O)CC1)Nc1c(F)cccc1F` [Example 160]: the IC50 was less than 20 µM on Activated CDK2/CyclinA and less than 100 µM in assay [1].
As to `C[N+]1([O-])CCC(NC(=O)c2n[nH]cc2NC(=O)c2c(F)cccc2F)CC1` (centres unmarked) [Example 162], the IC50 (against Activated CDK2/CyclinA; in assay [1]) was less than 20 µM each time.
For the compound `NC[C@H]1CC[C@H](NC(=O)c2n[nH]cc2NC(=O)c2c(F)cccc2F)CC1` [Example 163], the IC50 (on Activated CDK2/CyclinA; in assay [1]) was less than 20 µM throughout.
`CS(=O)(=O)NC[C@H]1CC[C@H](NC(=O)c2n[nH]cc2NC(=O)c2c(F)cccc2F)CC1` [Example 164]: the IC50 (against Activated CDK2/CyclinA; in assay [1]) was less than 20 µM throughout.
For `O=C(N[C@H]1CC[C@H](N2CCOCC2)CC1)c1n[nH]cc1NC(=O)c1c(F)cccc1F` [Example 167], the IC50 (against Activated CDK2/CyclinA; in assay [1]) was less than 20 µM each time.
As to `O=C(Nc1c[nH]nc1C(=O)NCC1CC1)c1cccc2c1OCCO2` [Example 178], the IC50 (at Activated CDK2/CyclinA; in assay [1]) was less than 20 µM throughout.
On to `CC(C)(C)N1CCC(NC(=O)c2n[nH]cc2NC(=O)c2c(F)cccc2F)CC1` [Example 179], for which the IC50 (against Activated CDK2/CyclinA; in assay [1]) was less than 20 µM each time.
For the compound `O=C(Nc1c[nH]nc1C(=O)NCC1CC1)c1ccc(N2CCOCC2)cc1Cl` [Example 182], the IC50 against Activated CDK2/CyclinA was less than 20 µM; in assay [1], less than 100 µM.
For `CN1CCC(NC(=O)c2n[nH]cc2NC(=O)c2c(F)cccc2Cl)CC1` [Example 186], the IC50 (on Activated CDK2/CyclinA; in assay [1]) was less than 20 µM each time.
In the case of `CN1CCC(NC(=O)c2n[nH]cc2NC(=O)c2c(Cl)cccc2Cl)CC1` [Example 187], the IC50 (on Activated CDK2/CyclinA; in assay [1]) was less than 20 µM throughout.
With `Cc1ccc(C(=O)Nc2c[nH]nc2C(=O)NC2CCN(C)CC2)cc1` [Example 189], the IC50 (against Activated CDK2/CyclinA; in assay [1]) was less than 20 µM each time.
For the compound `COc1ccccc1C(=O)Nc1c[nH]nc1C(=O)NC1CCNCC1` [Example 190], the IC50 (against Activated CDK2/CyclinA; in assay [1]) was less than 20 µM each time.
Regarding `O=C(NC1CCNCC1)c1n[nH]cc1NC(=O)c1c(Cl)cncc1Cl` [Example 194], the IC50 (against Activated CDK2/CyclinA; in assay [1]) was less than 20 µM each time.
`O=C(Nc1c[nH]nc1C(=O)NC1CCNCC1)c1ccccc1OC(F)(F)F` [Example 196]: the IC50 (against Activated CDK2/CyclinA; in assay [1]) was less than 20 µM throughout.
In the case of `CCOc1ccccc1C(=O)Nc1c[nH]nc1C(=O)NC1CCNCC1` [Example 198], the IC50 (at Activated CDK2/CyclinA; in assay [1]) was less than 20 µM in each case.
For `O=C(Nc1c[nH]nc1C(=O)NC1CCNCC1)c1ccccc1N1CCOCC1` [Example 199], the IC50 (against Activated CDK2/CyclinA; in assay [1]) was less than 20 µM in each case.
As for `O=C(Nc1c[nH]nc1C(=O)NC1CCNCC1)c1ccccc1OCc1ccccc1` [Example 200], the 50% inhibitory concentration (IC50) (on Activated CDK2/CyclinA; in assay [1]) was less than 20 µM throughout.
Turning to `O=C(Nc1c[nH]nc1C(=O)NC1CCNCC1)c1ccccc1Br` [Example 201], the concentration for half-maximal inhibition (IC50) (at Activated CDK2/CyclinA; in assay [1]) was less than 20 µM throughout.
As for `COc1cccc(F)c1C(=O)Nc1c[nH]nc1C(=O)NC1CCN(C)CC1` [Example 202], the IC50 (against Activated CDK2/CyclinA; in assay [1]) was less than 20 µM each time.
Turning to `CN1CCC(NC(=O)c2n[nH]cc2NC(=O)c2ccccc2OC(C)(C)C)CC1` [Example 203], the IC50 (at Activated CDK2/CyclinA; in assay [1]) was less than 20 µM in each case.
Turning to `COc1ccc(F)cc1C(=O)Nc1c[nH]nc1C(=O)NC1CCN(C)CC1` [Example 204], the IC50 (on Activated CDK2/CyclinA; in assay [1]) was less than 20 µM each time.
`O=C(N[C@H]1CCCNC1)c1n[nH]cc1NC(=O)c1c(Cl)cccc1Cl` [Example 208]: the IC50 (at Activated CDK2/CyclinA; in assay [1]) was less than 20 µM in each case.
As for `COCCN1CCC(NC(=O)c2n[nH]cc2NC(=O)c2c(Cl)cccc2Cl)CC1` [Example 209], the IC50 (against Activated CDK2/CyclinA; in assay [1]) was less than 20 µM each time.
`CN1CCC(NC(=O)c2n[nH]cc2NC(=O)c2ccccc2Cl)CC1` [Example 211]: the IC50 (against Activated CDK2/CyclinA; in assay [1]) was less than 20 µM in each case.
On to `CN1CCC(NC(=O)c2n[nH]cc2NC(=O)c2cc(Cl)ccc2Cl)CC1` [Example 212], for which the IC50 (against Activated CDK2/CyclinA; in assay [1]) was less than 20 µM in each case.
Take `CN1CCC(NC(=O)c2n[nH]cc2NC(=O)c2cccc(Cl)c2Cl)CC1` [Example 213]: the IC50 (on Activated CDK2/CyclinA; in assay [1]) was less than 20 µM throughout.
For `CN1CCN(c2cc(F)cc(C(=O)Nc3c[nH]nc3C(=O)NC3CCCCC3)c2)CC1` [Example 215], the IC50 (against Activated CDK2/CyclinA; in assay [1]) was less than 20 µM in each case.
